Laboratory results from patent publication US20130123276A1, “USE OF TELAPREVIR AND RELATED COMPOUNDS IN ATHEROSCLEROSIS, HEART FAILURE, RENAL DISEASES, LIVER DISEASES OR INFLAMMATORY DISEASES” (priority 2011, published 2013).

Biological target: T1, Recombinant human cathepsin A (Homo sapiens, UniProt P10619)
T1 construct: Recombinant human cathepsin A (residues 29-480, with a C-terminal 10-His tag); 10-His (C); purchased R&D Systems 1049-SE
T1 sequence (P10619 29-326 limits assumed): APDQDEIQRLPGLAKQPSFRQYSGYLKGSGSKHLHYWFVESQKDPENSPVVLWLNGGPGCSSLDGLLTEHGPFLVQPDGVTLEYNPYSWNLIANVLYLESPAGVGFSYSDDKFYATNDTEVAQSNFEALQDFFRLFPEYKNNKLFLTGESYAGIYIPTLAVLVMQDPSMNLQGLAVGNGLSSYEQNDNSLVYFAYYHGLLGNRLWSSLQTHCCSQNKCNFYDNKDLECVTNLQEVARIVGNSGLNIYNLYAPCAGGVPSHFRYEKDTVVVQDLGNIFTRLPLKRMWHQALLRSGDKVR
T1 sequence (P10619 327-480 limits assumed): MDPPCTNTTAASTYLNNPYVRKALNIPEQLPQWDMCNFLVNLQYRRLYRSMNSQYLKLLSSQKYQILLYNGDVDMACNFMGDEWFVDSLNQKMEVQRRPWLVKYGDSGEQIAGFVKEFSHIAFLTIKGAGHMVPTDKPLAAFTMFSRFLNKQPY
Assay: Cathepsin A inhibitory activity
Assay type: biochemical
Settings: activated recombinant human cathepsin A, Bodipy FL-labeled bradykinin substrate, pH 5.5, microfluidic capillary electrophoresis
Description: Recombinant human cathepsin A (residues 29-480, with a C-terminal 10-His tag; R&D Systems, # 1049-SE) was proteolytically activated with recombinant human cathepsin L (R&D Systems, # 952-CY). Briefly, cathepsin A was incubated at 10 μg/ml with cathepsin L at 1 μg/ml in activation buffer (25 mM 2-(morpholin-4-yl)-ethanesulfonic acid (MES), pH 6.0, containing 5 mM dithiothreitol (DTT)) for 15 min at 37° C. Cathepsin L activity was then stopped by the addition of the cysteine protease inhibitor E-64 (N-(trans-epoxysuccinyl)-L-leucine-4-guanidinobutylamide; Sigma-Aldrich, # E3132; dissolved in activation buffer/DMSO) to a final concentration of 10 μM.
The activated cathepsin A was diluted in assay buffer (25 mM MES, pH 5.5, containing 5 mM DTT) and mixed with the test compound (dissolved in assay buffer containing (v/v) 3% DMSO) or, in the control experiments, with the vehicle in a multiple assay plate. […]
Uncleaved substrate and product were then separated by a microfluidic capillary electrophoresis on a LabChip® 3000 Drug Discovery System (12-Sipper-Chip; Caliper Life Sciences) and quantified by determination of the respective peak areas. Substrate turnover was calculated by dividing product peak area by the sum of substrate and product peak areas, and the enzyme activity and the inhibitory effect of the test compound thus quantified. […]

CCC[C@H](NC(=O)[C@@H]1[C@H]2CCC[C@H]2CN1C(=O)[C@@H](NC(=O)[C@@H](NC(=O)c1cnccn1)C1CCCCC1)C(C)(C)C)C(=O)C(=O)NC1CC1 [Telaprevir, (1 S,3aR,6aS)-2-[(2S)-2-[[(2S)-2-Cyclohexyl-2-(pyrazine-2-carbonylamino)acetyl]amino]-3,3-dimethylbutanoyl]-N-[(3S)-1-(cyclopropylamino)-1,2-dioxohexan-3-yl]-3,3a,4,5,6,6a-hexahydro-1H-cyclopenta[c]pyrrole-1-carboxamide]
IC50: 100 nM
